From patent US20170314056A1, “METHOD OF USING NEAR INFRARED FLUORESCENT DYES FOR IMAGING AND TARGETING CANCERS” (priority 2010, published 2017)
“Also recorded” adds a separate entry of the source. Like-named read-outs stand apart in the source and are kept apart here.

Assays:
normal human cells = assay: Uptake of NIR dyes by cultured normal human cells; type: cell-based; conditions: HS-27A/BMC, NPE, NPF, HUVEC-CS, HEK293; 20 μM dye, 30 min
Protocol: Cells (1×10^4/well) were seeded on vitronectin-coated four-well chamber slides (Nalgen Nunc, Naperville, Ill.) and incubated with T-medium containing 5% FBS for 24 h. After the cells had attached to the chamber slides, the cells were washed with PBS (Phosphate Buffered Saline) and exposed to the cyanine dye at a concentration of 20 μM in T-medium. The slides were incubated at 37° C. for 30 min, washed twice with PBS to remove excess dyes, and cells were fixed with 10% formaldehyde at 4° C. The slides were then washed twice with PBS and covered with glass coverslips with an aqueous mounting medium (Sigma-Aldrich, St. Louis, Mo.). Images were recorded by confocal laser microscopy (Zeiss LSM 510 META, Germany) using a 633 nm excitation laser and 670-810 nm long pass filter, or a fluorescence microscope (Olympus 1×71; Olympus, Melville, N.Y.) equipped with a 75 W Xenon lamp and an Indo-Cyanine Green filter cube (excitation 750-800 nm; emission 820-860 nm) (Chroma, Rockingham, Vt.).
Cells (1×10^4/well) were seeded on vitronectin-coated four-well chamber slides (Nalgen Nunc, Naperville, Ill.) and incubated with T-medium containing 5% FBS for 24 h. After the cells had attached to the chamber slides, the cells were washed with PBS (Phosphate Buffered Saline) and exposed to the cyanine dye at a concentration of 20 μM in medium. The slides were incubated at 37° C. for 30 min, washed twice with PBS to remove excess dyes, and fixed with 10% formaldehyde at 4° C. The slides were then washed twice with PBS and covered with glass coverslips with aqueous mounting medium (Sigma-Aldrich, St. Louis, Mo.). Images were recorded by confocal laser microscopy (Zeiss LSM 510 META, Germany) equipped with 633 nm excitation laser and 670-810 nm long pass filter.

ARCaPM cells = assay: Live-cell kinetics of dye uptake in prostate cancer cells; type: cell-based, human; conditions: for uptake of dye in ARCaPM cells compared with normal P69 cells: 20 μM dye, live-cell spinning disc confocal
Protocol: ARCaPM Cells were plated on live-cell imaging chambers from World Precision Instrument (Sarasota, Fla.) overnight. Cells were treated with IR-780 with different concentrations and were imaged using a Perkin-Elmer Ultraview ERS spinning discconfocal microscope. This system was mounted on a Zeiss Axiovert 200m inverted microscope equipped with a 37° C. stage warmer, incubator, and CO2 perfusion. A x63 or x100 Zeiss oil objective (numerical aperture, 1.4) was used for all images and a Z-stack was created using the attached piezo electric z-stepper motor. The 633 nm laser line of an argon ion laser (set at 60% power) was used to excite the IR-780 organic dye. For each comparison, the exposure time and laser intensity was kept identical for accurate intensity measurement. Pixel intensity was quantitated using Metamorph 6.1 (Universal Imaging, Downingtown, Pa.) and the mean pixel intensity was generated as grey level using the Region Statistics feature on the software.
Cells were plated on live-cell imaging chambers (World Precision Instrument, Sarasota, Fla.) overnight. Cells were exposed to cyanine dyes at different concentrations and dye uptake was evaluated by a Perkin-Elmer Ultraview ERS spinning disc confocal microscope. This system was mounted on a Zeiss Axiovert 200m inverted microscope equipped with a 37° C. stage warmer, incubator, and constant CO2 perfusion. A 63× or 100× Zeiss oil objective (numerical aperture, 1.4) was used for live cell images and a Z-stack was created using the attached piezoelectric z-stepper motor. The 633 nm laser line of an argon ion laser (set at 60% power) was used to excite the cyanine dyes. […] For comparative studies, the exposure time and laser intensity were kept identical for accurate intensity measurements. Pixel intensity was quantified using Metamorph 6.1 (Universal Imaging, Downingtown, Pa.) and the mean pixel intensity was generated as grey level using the Region Statistics feature on the software (23). To determine the dye uptake by the mitochondria, the mitochondrial tracking dye Mito Tracker Orange CMTMROS (Molecular Probes, Carlsbad, Calif.) was used. To determine the dye localization in lysosomes, a lysosome tracking dye, Lyso Tracker Green DND-26 (Molecular Probes, Carlsbad, Calif.), was selected. Imaging of mitochondrial and/or lysosome localization of the cyanine dye was conducted under confocal microscopy (24).
To determine if the cyanine dye uptake and accumulation in cancer cells was dependent upon OATPs, cells were preincubated with 250 μM bromosulfophthalein (BSP), a competitive inhibitor of organic anion transporting peptides (OATPs) (25), for 5 minutes prior to incubating the cells with cyanine dyes. The uptake and accumulation of cyanine dyes in the presence and absence of BSP were conducted in the stage warmer incubator for a period of 35 minutes. The levels of cyanine dye taken up and accumulated in normal prostate (P69) and prostate cancer (ARCaPM) cells were determined and compared on a real-time basis.

human tumor xenografts = assay: NIR imaging of human tumor xenografts in live mice; conditions: for tumor imaging of subcutaneous xenografts: Kodak multimodal-imaging system; for dye uptake and signal in human xenograft implants at various sites: subcutaneous, orthotopic or intraosseous tumors, i.p. or i.v. dye; for duration of dye uptake and retention in tumors after dye administration: tumors in live mice
Excerpt: […] After variable time of the dye injection, the mice were anesthetized and imaged by using the Kodak animal in vivo imaging system, which can obtain both the NIR signal and the X-ray picture and these images were merged. […] IR-783 uptake into metastatic human prostate tumors was studied in ARCaP model.
Uptake and accumulation of cyanine dyes in tumors in live mice Human cancer cells were implanted (1×10^6) either subcutaneously, orthotopically, or intraosseously into 4 to 6 week old athymic nude mice (National Cancer Institute, Frederick, Md.) according to our previously published procedures (26, 27). All animal studies were conducted under the Emory University Animal Care and Use Committee guidelines. […] Whole body optical imaging was taken at 24 h using a Kodak Imaging Station 4000 MM (New Haven, Conn.) equipped with fluorescent filter sets (excitation/emission, 800/850 nm). The field of view (FOV) was 120 mm in diameter. The frequency rate for NIR excitation light was 2 mW/cm^2. The camera settings included maximal gain, 2×2 binning, 1024×1024 pixel resolution, and an exposure time of 5 sec. In some instances, live mice were also imaged by an Olympus OV100 Whole Mouse Imaging System (excitation 762 nm; emission 800 nm) (Olympus Corp., Tokyo, Japan), containing a MT-20 light source (Olympus Biosystems, Planegg, Germany) and DP70 CCD camera (Olympus). Prior to imaging, mice were anesthetized with ketamine (75 mg/kg). During imaging, mice were maintained in an anesthetized state.
Human renal cancer cells (ACHN and SN12C) were implanted (1×10^6) subcutaneously and intraosseously into 4 to 6 week old athymic nude mice, respectively. And, we also implanted Caki-1 cells into the renal capsule of athymic nude mice to establish subrenal capsule xenografts of renal cancer as previously described.^70 When tumor sizes reached between 1-6 mm in diameter, as assessed by X-ray or by palpation, mice were […] Whole body optical imaging was taken at 24 h using a Kodak Imaging Station Imaging System 4000 MM (New Haven, Conn.) equipped with fluorescent filter sets (excitation/emission, 800/850 nm). The field of view (FOV) was 120 mm in diameter. The frequency rate for NIR excitation light was 2 mW/cm^2. The camera settings included maximal gain, 2×2 binning, 1024×1024 pixel resolution, and an exposure time of 5 sec. After whole body NIR imaging, the dissected organs and tumors were subjected to ex vivo imaging. Prior to imaging, mice were anesthetized with ketamine (75 mg/kg). During imaging, mice were maintained in an anesthetized state.

[1] = for body weight: daily intraperitoneal injection, Balb/c mice
Protocol: In control mice, the same volume of PBS was injected. The body weight and lethality of these mice were closely followed for 28 days.

[2] = mice bearing subcutaneous ACHN tumors

Q: Which results are given for “2-[2-[2-Chloro-3-[2-[1,3-dihydro-3,3-dimethyl-1-(4-sulfobutyl)-2H-indol-2-ylidene]-ethylidene]-1-cyclohexen-1-yl]-ethenyl]-3,3-dimethyl-1-(4-sulfobutyl)-3H-indolium [IR-783]”?
A: uptake of dye by normal human cells in culture (normal human cells): unable to be taken up by normal cells; also recorded: not to accumulate; also recorded: not taken up; also recorded: low uptake; also recorded: very low uptake; uptake of dye in ARCaPM cells compared with normal P69 cells (ARCaPM cells): significant uptake; early phase of uptake and retention completed (ARCaPM cells; ARCaP cells): 12 min; late phase of uptake and retention completed (ARCaPM cells; ARCaP cells): 30 min; tumor imaging of subcutaneous xenografts (human tumor xenografts; 5 nmol dye through tail vein): clear tumor images can be detected; time after dye at which optimal images of tumors and metastases are obtained (human tumor xenografts; metastatic prostate tumors (ARCaP orthotopic) in mice): 24 to 48 h; signal in tumor specimens, ex vivo analysis (human tumor xenografts; [2]): higher signals in tumor specimens; signals in other normal organs, ex vivo analysis (human tumor xenografts; [2]): very low signals; dye uptake by orthotopic ARCaPM tumors (human tumor xenografts; orthotopic ARCaPM (ARCaP) tumors in mice): strong uptake; also recorded: active uptake; also recorded: dye uptake and retention seen in an ARCaPM orthotopic tumor; tumor signal in whole-body NIR imaging (human tumor xenografts; subcutaneous renal tumors (ACHN), Kodak System): signals could be clearly visualized in the tumors; dye uptake and signal in human xenograft implants at various sites (human tumor xenografts): found in a broad spectrum of human xenograft implants; also recorded: intense signals were clearly associated with the tumors; also recorded: both tumors were detected; signal at anatomical sites of implanted tumors (human tumor xenografts; subrenal capsule (Caki-1) and intraosseous (SN12C) renal tumor xenografts): strong signals; duration of dye uptake and retention in tumors after dye administration (human tumor xenografts): up to 15 days; size of tumors that can be imaged (human tumor xenografts; tumors in mice): approximately 1 mm^3; tumor weight that can be imaged (human tumor xenografts; tumors in mice): approximately 1 mg; body weight ([1]; 0 day, 1X imaging dose): 20.29 g; body weight ([1]; 0 day, 10X imaging dose): 20.57 g; body weight ([1]; 0 day, 100X imaging dose): 19.85 g; lethality in treated mice ([1]; 100× imaging dose, 28 days): no lethality; body weight ([1]; 1 day, 1X imaging dose): 20.20 g; body weight ([1]; 1 day, 10X imaging dose): 20.61 g; body weight ([1]; 1 day, 100X imaging dose): 19.74 g; body weight ([1]; 2 day, 1X imaging dose): 20.23 g; body weight ([1]; 2 day, 10X imaging dose): 20.59 g; body weight ([1]; 2 day, 100X imaging dose): 20.01 g; body weight ([1]; 3 day, 1X imaging dose): 20.32 g; body weight ([1]; 3 day, 10X imaging dose): 20.98 g; body weight ([1]; 3 day, 100X imaging dose): 20.39 g; body weight ([1]; 4 day, 1X imaging dose): 20.34 g; body weight ([1]; 4 day, 10X imaging dose): 21.02 g; body weight ([1]; 4 day, 100X imaging dose): 20.43 g; body weight ([1]; 5 day, 1X imaging dose): 21.00 g; body weight ([1]; 5 day, 10X imaging dose): 21.34 g; body weight ([1]; 5 day, 100X imaging dose): 21.01 g; body weight ([1]; 6 day, 1X imaging dose): 21.87 g; body weight ([1]; 6 day, 10X imaging dose): 21.76 g; body weight ([1]; 6 day, 100X imaging dose): 21.23 g; body weight ([1]; 7 day, 1X imaging dose): 22.32 g; body weight ([1]; 7 day, 10X imaging dose): 22.54 g; body weight ([1]; 7 day, 100X imaging dose): 22.00 g; body weight ([1]; 14 day, 1X imaging dose): 23.91 g; body weight ([1]; 14 day, 10X imaging dose): 24.01 g; body weight ([1]; 14 day, 100X imaging dose): 23.76 g; body weight ([1]; 28 day, 1X imaging dose): 24.86 g; body weight ([1]; 28 day, 10X imaging dose): 24.87 g; body weight ([1]; 28 day, 100X imaging dose): 24.61 g

Q: Which results are given for `CCCN1C(=CC=C2CCCC(C=CC3=[N+](CCC)c4ccccc4C3(C)C)=C2Cl)C(C)(C)c2ccccc21.[I-]` [IR-780, 2-[2-[2-Chloro-3-[(1,3-dihydro-3,3-dimethyl-1-propyl-2H-indol-2-ylidene)ethylidene]-1-cyclohexen-1-yl]ethenyl]-3,3-dimethyl-1-propylindolium iodide]?
A: uptake of dye by normal human cells in culture (normal human cells): unable to be taken up by normal cells; also recorded: very low uptake; uptake of dye in ARCaPM cells compared with normal P69 cells (ARCaPM cells): big difference in IR-780 uptake by cancer cells and normal cells; dye concentration needed to measure uptake into cancer cells in culture (ARCaPM cells; time course and concentration dependence): 20 to 50 µM; tumor imaging of intratibial ARCaPM tumors (human tumor xenografts; 5 nmol dye through tail vein): clear tumor images can be detected; tumor imaging of subcutaneous xenografts (human tumor xenografts; 5 nmol dye through tail vein): clear tumor images can be detected in all subcutaneous tumors; dye uptake and signal in human xenograft implants at various sites (human tumor xenografts): found in a broad spectrum of human xenograft implants; duration of dye uptake and retention in tumors after dye administration (human tumor xenografts): ≤ 15 days; body weight ([1]; 0 day, 1X imaging dose): 19.00 g; body weight ([1]; 0 day, 10X imaging dose): 20.71 g; body weight ([1]; 0 day, 100X imaging dose): 20.14 g; day after injection at which all mice were killed ([1]; 100× excess of the imaging dose): 2 days; body weight ([1]; 1 day, 1X imaging dose): 19.02 g; body weight ([1]; 1 day, 10X imaging dose): 20.69 g; body weight ([1]; 1 day, 100X imaging dose): 0 g; body weight ([1]; 2 day, 1X imaging dose): 19.71 g; body weight ([1]; 2 day, 10X imaging dose): 20.70 g; body weight ([1]; 2 day, 100X imaging dose): 0 g; body weight ([1]; 3 day, 1X imaging dose): 20.01 g; body weight ([1]; 3 day, 10X imaging dose): 21.03 g; body weight ([1]; 3 day, 100X imaging dose): 0 g; body weight ([1]; 4 day, 1X imaging dose): 20.32 g; body weight ([1]; 4 day, 10X imaging dose): 21.24 g; body weight ([1]; 4 day, 100X imaging dose): 0 g; body weight ([1]; 5 day, 1X imaging dose): 20.56 g; body weight ([1]; 5 day, 10X imaging dose): 21.89 g; body weight ([1]; 5 day, 100X imaging dose): 0 g; body weight ([1]; 6 day, 1X imaging dose): 20.97 g; body weight ([1]; 6 day, 10X imaging dose): 22.00 g; body weight ([1]; 6 day, 100X imaging dose): 0 g; body weight ([1]; 7 day, 1X imaging dose): 21.81 g; body weight ([1]; 7 day, 10X imaging dose): 22.56 g; body weight ([1]; 7 day, 100X imaging dose): 0 g; body weight ([1]; 14 day, 1X imaging dose): 23.56 g; body weight ([1]; 14 day, 10X imaging dose): 24.00 g; body weight ([1]; 14 day, 100X imaging dose): 0 g; body weight ([1]; 28 day, 1X imaging dose): 24.44 g; body weight ([1]; 28 day, 10X imaging dose): 24.56 g; body weight ([1]; 28 day, 100X imaging dose): 0 g
